# Source: PubChem BioAssay (NCI)
# Where “and” joins values, the source holds several entries; their conditions need not be identical. Equal entries are not always repeated.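 48-hour exposure; five concentrations; linearly interpolated endpoints. GI50 marks 50% less growth. TGI is the concentration that stops growth completely.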
# Key:
# Experiment in all cases: inhibition of tumour cell growth, NCI panel, 48 h
# [1] = system: SK-MEL-5 melanoma
# [2] = system: T-47D breast
# [3] = system: UACC-257 melanoma
# [4] = system: SN12C renal
# [5] = system: PC-3 prostate
# [6] = system: SK-MEL-2 melanoma
# [7] = system: MDA-MB-435
# [8] = system: M14 melanoma
# [9] = system: SF-539 CNS
# [10] = system: MCF7 breast
# [11] = system: SF-295 CNS
# [12] = system: HT29 colon
# [13] = system: OVCAR-5 ovarian
# [14] = system: A498 renal
# [15] = system: SNB-19 CNS
# [16] = system: MDA-MB-231 breast
# [17] = system: HCT-116 colon
# [18] = system: TK-10 renal
# [19] = system: NCI/ADR-RES ovarian
# [20] = system: OVCAR-8 ovarian
# [21] = system: CAKI-1 renal
# [22] = system: NCI-H226 lung
# [23] = system: SR leukemia
# [24] = system: RXF 393 renal
# [25] = system: NCI-H23 lung
# [26] = system: SF-268 CNS
# [27] = system: OVCAR-3 ovarian
# [28] = system: HL-60(TB) leukemia
# [29] = system: U251 CNS
# [30] = system: A549 NSCLC
# [31] = system: SK-MEL-28 melanoma
# [32] = system: OVCAR-4 ovarian
# [33] = system: HOP-92 NSCLC
# [34] = system: MALME-3M melanoma
# [35] = system: ACHN renal
# [36] = system: 786-0 renal
# [37] = system: K-562 leukemia
# [38] = system: NCI-H460 lung
# [39] = system: HCC-2998 colon
# [40] = system: SNB-75 CNS
# [41] = system: MOLT-4 leukemia
# [42] = system: DU-145 prostate
# [43] = system: EKVX NSCLC
# [44] = system: BT-549 breast
# [45] = system: IGROV1 ovarian
# [46] = system: KM12 colon
# [47] = system: UACC-62 melanoma
# [48] = system: NCI-H522 lung
# [49] = system: LOX IMVI melanoma
# [50] = system: UO-31 renal
# [51] = system: HS 578T breast
# [52] = system: HOP-62 NSCLC
# [53] = system: SK-OV-3 ovarian
# [54] = system: COLO 205 colon
# [55] = system: CCRF-CEM leukemia
# [56] = system: HCT-15 colon
# [57] = system: SW-620 colon
smiles,measurement,setting,value
COc1ccc2c(c1)C(=O)c1c-2n(CCCI)c(=O)c2cc([N+](=O)[O-])ccc12,GI50,[1],109 nM and 124 nM
same,TGI,[1],438 nM and 468 nM
same,GI50,[2],173 nM and 163 nM
same,TGI,[2],1650 nM and 8640 nM
same,GI50,[3],914 nM and 4130 nM
same,TGI,[3],17400 nM and 37900 nM
same,GI50,[4],105 nM and 312 nM
same,GI50,[5],279 nM and 1420 nM
same,TGI,[5],30400 nM and > 100000 nM
same,GI50,[6],8010 nM and 16400 nM
same,TGI,[6],47200 nM and > 100000 nM
same,GI50,[7],449 nM and 1490 nM
same,TGI,[7],5430 nM and 16500 nM
same,GI50,[8],133 nM and 57 nM
same,TGI,[8],590 nM and 1350 nM
same,GI50,[9],96.2 nM and 57.7 nM
same,TGI,[9],338 nM and 376 nM
same,GI50,[10],10.5 nM and 34.3 nM
same,GI50,[11],122 nM and 100 nM
same,TGI,[11],50000 nM and 66800 nM
same,GI50,[12],160 nM and 437 nM
same,TGI,[13],7750 nM and 46300 nM
same,GI50,[14],609 nM and 157 nM
same,TGI,[14],3600 nM and 950 nM
same,GI50,[15],313 nM and 131 nM
same,TGI,[15],36900 nM and > 100000 nM
same,GI50,[16],12900 nM and 22900 nM
same,TGI,[16],50000 nM and > 100000 nM
same,GI50,[17],72.1 nM and 45.3 nM
same,TGI,[17],1020 nM and 1940 nM
same,GI50,[18],33100 nM and 19400 nM
same,TGI,[18],50000 nM and > 100000 nM
same,GI50,[19],140 nM and 122 nM
same,GI50,[20],266 nM and 338 nM
same,TGI,[20],50000 nM and > 100000 nM
same,GI50,[21],472 nM and 309 nM
same,TGI,[21],48600 nM and 6860 nM
same,GI50,[22],671 nM and 890 nM
same,TGI,[22],6020 nM and 14700 nM
same,GI50,[23],5 nM
same,TGI,[23],88.8 nM and 143 nM
same,GI50,[24],319 nM and 789 nM
same,TGI,[24],3570 nM and 13800 nM
same,GI50,[25],160 nM and 119 nM
same,TGI,[25],988 nM and 1270 nM
same,GI50,[26],161 nM and 141 nM
same,TGI,[26],44400 nM and > 100000 nM
same,GI50,[27],1080 nM and 2990 nM
same,TGI,[27],19400 nM and 20100 nM
same,GI50,[28],167 nM and 52.6 nM
same,TGI,[28],2260 nM and 822 nM
same,GI50,[29],138 nM and 47 nM
same,TGI,[29],5640 nM and 1270 nM
same,GI50,[30],316 nM and 402 nM
same,TGI,[30],50000 nM and 40900 nM
same,GI50,[31],861 nM and 3070 nM
same,TGI,[31],50000 nM and > 100000 nM
same,GI50,[32],1030 nM and 3720 nM
same,TGI,[32],11900 nM and 84300 nM
same,GI50,[33],73.8 nM and 715 nM
same,GI50,[34],1360 nM and 2850 nM
same,TGI,[34],18400 nM and 43300 nM
same,GI50,[35],138 nM and 29.3 nM
same,TGI,[35],1030 nM and 239 nM
same,GI50,[36],106 nM and 52.2 nM
same,GI50,[37],59.6 nM and 190 nM
same,TGI,[37],50000 nM and > 100000 nM
same,GI50,[38],11.7 nM and 29.6 nM
same,GI50,[39],630 nM and 797 nM
same,TGI,[39],6410 nM and 21900 nM
same,GI50,[40],198 nM and 368 nM
same,TGI,[40],2370 nM and 15200 nM
same,GI50,[41],60 nM and 21.4 nM
same,TGI,[41],971 nM and 117 nM
same,GI50,[42],54.1 nM and 34.1 nM
same,TGI,[42],172 nM and 811 nM
same,TGI,[43],11800 nM and > 100000 nM
same,GI50,[44],112 nM and 786 nM
same,TGI,[45],50000 nM and 72300 nM
same,GI50,[46],939 nM and 1770 nM
same,TGI,[46],50000 nM and 46600 nM
same,GI50,[47],109 nM and 149 nM
same,TGI,[47],851 nM and 1350 nM
same,TGI,[48],50000 nM and 98800 nM
same,GI50,[49],74.3 nM and 43.2 nM
same,TGI,[49],763 nM and 1010 nM
same,GI50,[50],360 nM and 71.6 nM
same,TGI,[50],13100 nM and 10400 nM
same,GI50,[51],7670 nM and 3850 nM
same,TGI,[51],31200 nM and 35300 nM
same,GI50,[52],143 nM
same,TGI,[52],7770 nM
same,GI50,[53],230 nM and 480 nM
same,GI50,[54],1770 nM and 1120 nM
same,TGI,[54],21600 nM and 55300 nM
same,GI50,[55],25.4 nM and 15.3 nM
same,GI50,[56],1050 nM and 1130 nM
same,TGI,[56],50000 nM and 28000 nM
same,GI50,[57],52.4 nM and 34.5 nM
same,TGI,[57],7910 nM and 15600 nM
